From article PMC13267291, “In vivo functional profiling and structural characterization of the human GLP1R A316T variant” (Science Advances, 2026)

What was measured:
[1] = system: hGLP1R^A316T/A316T versus hGLP1R^+/+ mice; assay: IPGTT acutely and 6 hours after GLP-1RA, chow-fed homozygous mice; format: in vivo, mouse; details: chow diet; for Agonist-specific glycemic response (ΔAUC), 6-hour time point, A316T/A316T versus +/+: IPGTT 6 hours postadministration, n = 9; for Agonist-specific glycemic response (ΔAUC), 6-hour time point, A316T/A316T versus +/+ / Agonist-specific glycemic response (ΔAUC, agonist- minus vehicle-treated AUC), acute, A316T/A316T versus +/+: Fig. 1J,K; for Agonist-specific glycemic response (ΔAUC, agonist- minus vehicle-treated AUC), acute, A316T/A316T versus +/+: acute IPGTT, n = 9 per genotype
Method: To examine acute and prolonged glycemic responses to GLP-1RAs, animals were fasted for 2 hours, starting at 8 a.m. on the morning of the experiments, before IPGTTs. GLP-1RAs were then coadministered at the indicated concentrations with 20% (w/v) D-glucose via intraperitoneal injection at weight-adjusted volumes. Baseline glucose readings were taken via tail venipuncture, and subsequent readings were taken at various time points after glucose ± GLP-1RA administration as for the OGTTs (0-hour acute IPGTTs). For GLP-1RAs with shorter half-lives (exendin-4 and exendin-F1), IPGTTs were repeated 6 hours after the start of the initial IPGTT, with continued fasting. For the extended half-life GLP-1RA semaglutide, IPGTTs were performed 24 and 72 hours after GLP-1RA administration, with access to food restored at the end of each IPGTT. The in vivo IPGTT studies were performed with a crossover design, with each mouse receiving vehicle and each GLP-1RA treatment with washout periods of at least 1 week between the different GLP-1RA treatments.

[2] = system: human GLP-1R A316T versus WT; assay: Insulin secretion assay in mouse islets; format: cell-based; details: chow-fed mouse islets; 100 nM; 16 hours; n = 4; Fig. 5H
Method: Purified mouse islets used for insulin secretion assays were treated in 24-well nonadherent plates. Eight islets were used per replicate with three technical replicates per condition. For acute studies, islets were preincubated for 1 hour in KRBH buffer containing 0.1% (w/v) bovine serum albumin (BSA) (10775835001, Roche) and 3 mM glucose before incubation with 11 mM glucose ± 100 nM GLP-1RAs or the GLP-1R antagonist exendin-9 in KRBH buffer in a shaking 37°C water bath (80 rpm) for 1 hour. For overnight studies, preincubation was carried out in RPMI 1640 medium containing FBS, P/S, and 3 mM glucose, followed by treatment with medium supplemented with 11 mM glucose ± GLP-1RAs for 16 hours. Supernatants containing secreted insulin were collected, centrifuged at 1000 rpm for 1 min, and transferred to fresh tubes. For total insulin content, islets were lysed using acidic ethanol (75% ethanol, 1.5 mM HCl). Lysates were sonicated 3× 10 s each in a water bath and centrifuged at 10,000g for 10 min, and supernatants were collected. For human islets, the same experiment was performed with islets previously transduced with pAV-SNAP/FLAG-hGLP1R^WT or ^A316T adenoviruses (generated by VectorBuilder) at a multiplicity of infection of 1, 24 hours before the start of experiments. Insulin secretion assays with the human EndoC-βH3 cell line were performed following 3 weeks of treatment with 4-hydroxytamoxifen as above, followed by transduction with pAV-SNAP/FLAG-hGLP1R^WT or ^A316T adenoviruses, with insulin secretion assessed as previously described ([54]), with the following modifications: After preincubation with 0.5 mM glucose KRBH buffer, cells were stimulated with 15 mM glucose ± exendin-4 for 60 min. Total and secreted insulin samples from islets and cells were stored at −20°C until quantification using an Insulin Ultra-Sensitive HTRF kit (#62IN2PEG, Revvity) in a PHERAstar plate reader (BMG Labtech), according to the manufacturer’s instructions.

[3] = system: SNAP/FLAG-hGLP1R^A316T versus ^WT; assay: Nb37 bystander NanoBiT assay (plasma membrane and endosomal GLP-1R activity); format: cell-based, human; details: log(Emax/EC50), Fig. 8B,C; for Agonist-induced endosomal A316T activity versus WT: n = 4 (GLP-1), n = 3 (Ex-4)
Method: Nb37 bystander NanoBiT assays
INS-1 832/3 Glp1r-/- cells were seeded in 6-well plates and co-transfected with the following plasmids:
200 ng pSNAP/FLAG-hGLP1RWT or A316T, 500 ng Gαs (human, short isoform), 500 ng Gβ1 (human), 500 ng Gγ2 (human), 100 ng RIC8B (human, isoform 2), and either 100 ng LgBiT-CAAX (KRAS CAAX motif N-terminally fused with LgBiT) or 500 ng Endofin-LgBiT (Endofin FYVE domain C-terminally fused with LgBiT), plus 100 ng (plasma membrane assay) or 500 ng (endosomal assay) SmBiT-Nb37 [Nb37 cDNA synthesised by GenScript C- terminally fused to SmBiT with a 15 amino acid flexible linker (123) ] and adjusted for total DNA with pcDNA3.1 for the LgBiT-CAAX transfection. 24 hours after transfection, cells were exposed to NanoGlo Live Cell Reagent (Promega) with furimazine (1:20 dilution) and bioluminescence read in a Flexstation 3 plate reader for 8 min before and 30 min after stimulation by […]
AUCs were calculated for each agonist concentration and fitted to log(agonist) versus response four-parameter curves using GraphPad Prism 10.1.2, with logEC50 (potency) and Emax (efficacy) calculated for each replicate dose response curve. Baseline endosomal over plasma membrane bioluminescence ratios were also calculated.
GLP- 1R conformational ECD opening time resolved-fluorescence resonance energy transfer (TR- […]
INS-1 832/3 Glp1r-/- SNAP/FLAG-hGLP1RWT or A316T cells were labelled with SNAP-Lumi4- Tb (Revvity; 40 nM, 60 min at 37°C in complete medium). After washing to remove unbound probe, cells were resuspended in HBSS ± 100 nM plasma membrane dye NR12A (a gift from Prof Andrey Klymchenko, University of Strasbourg, France) for 5 min before washing again. Labelled cells were transferred to 96-well half-area white plates and baseline TR-FRET signal from Lumi-4Tb (donor) and NR12A (acceptor) recorded for 5 min at 37°C using a Flexstation 3 plate reader with the following settings: λex = 335 nm, λem = 490 and 590 n m, delay 50 µs , integration time 300 µs. GLP-1 was then added at serial doses, and […]

Row | Substance | Agonist-specific glycemic response (ΔAUC), 6-hour time point, A316T/A316T versus +/+ ([1]; 2 nmol/kg ip) | Agonist-specific glycemic response (ΔAUC, agonist- minus vehicle-treated AUC), acute, A316T/A316T versus +/+ ([1]; 2 nmol/kg ip) | IPGTT glucose responses (AUC), A316T/A316T versus +/+ ([1]; 2 nmol/kg ip, acutely and 6 hours postagonist, Fig. 1F-I) | Desensitization at the 6-hour IPGTT versus exendin-4 ([1]; both mouse genotypes) | Agonist-mediated increase in glucose-stimulated insulin secretion (fold over 11 mM glucose) following overnight exposure, A316T/A316T versus +/+ islets [2] | Plasma membrane activity, A316T versus WT [3] | Agonist-induced endosomal A316T activity versus WT [3]
1 | exendin-F1 | absent | similarly reduced | without reaching statistical significance | reduced desensitization | no significantly detrimental effect | – | –
2 | exendin-4 | paradoxical increase in blood glucose levels compared to vehicle | significantly reduced | – | – | complete loss of the potentiating effect | without changes | significantly reduced
3 | GLP-1(7-36)NH2 | – | – | – | – | – | without changes | tendency to be increased
